pIC50: −log10 of the molar value. Counter-ions that a name gives are not always drawn.

The test addresses T1, human thrombin (Homo sapiens, UniProt P00734).
T1 construct: human thrombin (Sigma, specific activity 3230 UNIH/mg); purchased Sigma
The test is described as follows: Inhibition of human thrombin activity on human fibrinogen (fibrin formation, 405 nm). The format is biochemical. As to conditions: thrombin 0.7 nM, purified human fibrinogen, pre-incubation 20° C. 10 minutes, pH 7.4; read-out: IC50 (concentration of the compounds that inhibits 50% of the enzymatic activity of the thrombin). The method, then:
For in vitro evaluation of the inhibitory activity of the products of the invention on human thrombin (Sigma, specific activity 3230 UNIH/mg), purified human fibrinogen ([…], Stago) (Fg) was added to a given amount of thrombin (0.7 nM) that had previously been incubated with or without the inhibitor to be tested (20° C., 10 minutes).
Inhibitors, enzymes and substrates are diluted in the same buffer ([…] phosphate buffer, pH 7.4, containing 0.12 M sodium chloride and 0.05% bovine serum albumin) and then distributed on a polystyrene microtitre plate in a volume of 50 μl.
The fibrin formed by the thrombin is measured using a spectrophotometer at 405 nm after from 10 to 15 minutes' reaction at 20° C.
The table below gives in nM the concentration of the compounds that inhibits 50% of the enzymatic activity (IC50) of the thrombin compared with the control without product.
For the compound `O=C(NCc1ccccc1F)C1CCc2cnc(NCC(F)(F)c3cccc[n+]3[O-])c(=O)n21` (racemic) [Example 1, 3-{[2,2-Difluoro-2-(1-oxido-2-pyridyl)ethyl]amino}-N-(2-fluorobenzyl)4-oxo-4,6,7,8-tetrahydropyrrolo[1,2-a]pyrazine-6-carboxamide], the pIC50 was 7.55.
Under `O=C(NCc1ccccc1Cl)C1CCc2cnc(NCC(F)(F)c3cccc[n+]3[O-])c(=O)n21` (racemic) [Example 8, 3-{[2,2-Difluoro-2-(1-oxido-2-pyridyl)ethyl]amino}-N-(2-chlorobenzyl)-4-oxo-4,6,7,8-tetrahydropyrrolo[1,2-a]pyrazine-6-carboxamide] stands 7.42; under `O=C(NCc1ccccc1F)[C@@H]1CCc2cnc(NCC(F)(F)c3cccc[n+]3[O-])c(=O)n21` [Example 3, (6S)-3-{[2,2-Difluoro-2-(1-oxido-2-pyridyl)ethyl]amino}-N-(2-fluorobenzyl)-4-oxo-4,6,7,8-tetrahydropyrrolo[1,2-a]pyrazine-6-carboxamide], 7.80.
Under `O=C(COc1ccccc1CNC(=O)C1CCc2cnc(NCC(F)(F)c3cccc[n+]3[O-])c(=O)n21)NCCc1ccccn1` (stereo not shown) [Example 15, 3-{[2,2-Difluoro-2-(1-oxido-2-pyridyl)ethyl]amino}4-oxo-N-[2-(2-oxo-2-{[2-(2-pyridyl)ethyl]amino}ethoxy)benzyl]-4,6,7,8-tetrahydropyrrolo[1,2-a]pyrazine-6-carboxamide hydrochloride] stands 8.85.
To `O=C(NCc1c(F)ccc(F)c1F)[C@@H]1CCc2cnc(NCC(F)(F)c3cccc[n+]3[O-])c(=O)n21` [Example 21, (6S)-3-{[2,2-Difluoro-2-(1-oxido-2-pyridyl)ethyl]amino}-N-(2,3,6-trifluorobenzyl)-4-oxo-4,6,7,8-tetrahydropyrrolo[1,2-a]pyrazine-6-carboxamide] belongs 7.96; to `O=C(NCc1cccs1)[C@@H]1CCc2cnc(NCC(F)(F)c3cccc[n+]3[O-])c(=O)n21` [Example 24, (6S)-3-{[2,2-Difluoro-2-(1-oxido-2-pyridyl)ethyl]amino}-N-(2-thienylmethyl)-4-oxo-4,6,7,8-tetrahydropyrrolo[1,2-a]pyrazine-6-carboxamide hydrochloride], 7.22; to `O=C(NCc1ccccc1F)[C@@H]1CCc2cnc(NCC(F)(F)c3ccc4ccccc4[n+]3[O-])c(=O)n21` [Example 31, (6S)-3-{[2,2-Difluoro-2-(1-oxido 2-quinolinyl)ethyl]amino}-N-(2-fluorobenzyl)4-oxo-4,6,7,8-tetrahydropyrrolo[1,2-a]pyrazine 6-carboxamide], 8.08.

Source of the values: patent publication US7498330B2, “4-oxo-4,6,7,8-tetrahydro-pyrrolo[1,2-a]pyrazine-6-carboxamide compounds” (Les Laboratories Servier, priority 2004, dated 2009).
